Results reported in patent US20210346476A1, “Modified FVIII Apitope Peptides” (APITOPE INTERNATIONAL NV, priority 2012, published 2021).
No end group written: not given here.

Experiment: Direct dissolution of tagged peptides in aqueous solvent (PBS) at 4 mg/mL, NanoDrop
Type: physicochemical
Settings: 4 mg/mL in PBS vs DMSO control; FIG. 2
Method: For each test peptide and the parent peptides (PRCLT and DNIMV) two tubes were prepared at 4 mg/mL in either DMSO (control) or PBS.
Each tube was spun at full speed in a mini-centrifuge for 5 minutes. A 10 μL sample was removed from the top of each solution and the molecular weight and coefficient of absorption was recorded for each peptide.
The absorbance of the supernatant was measured using NanoDrop and the concentration calculated. In this Figure, greater disparity between the actual and expected concentration corresponds to lower relative solubility.

Row | Sequence | solubility in PBS compared to the parent peptides
1 | KKGDNIMVTFRNQASRPYGKE [SEQ ID No. 18] | improved solubility in PBS
2 | KKGDNIMVTFRNQASRPYGKK [SEQ ID No. 17] | improved solubility in PBS
3 | KKGPRCLTRYYSSFVNMEGKE [SEQ ID No. 2] | improved solubility in PBS
4 | KEGPRCLTRYYSSFVNMEGKK [SEQ ID No. 9] | improved solubility in PBS
5 | KEGDNIMVTFRNQASRPYGKE [SEQ ID No. 26] | improved solubility in PBS
6 | KEGPRCLTRYYSSFVNMEGKE [SEQ ID No. 10] | improved solubility in PBS
7 | KKGPRCLTRYYSSFVNMEGKK [SEQ ID No. 1] | improved solubility in PBS
8 | KEGDNIMVTFRNQASRPYGKK [SEQ ID No. 25] | improved solubility in PBS
